Reference: patent US20250032400A1, “PERSONAL CARE COMPOSITION” (Conopco, Inc., d/b/a UNILEVER, priority 2021, published 2025)

Experiments:
[1] = system: hyaluronan synthase 3 (HAS3); test: HAS3 gene expression by RT-PCR in normal human epidermal keratinocytes incubated with actives; type: cell-based; conditions: NHEK, 24 hours, 0.05 wt % of LCC in medium
Description: (§1) The normal human epidermal keratinocytes (NHEK) (Biocell, Xi'an, China) were incubated in medium together with or without actives for 24 hours. After incubation, the total RNA for each NHEK was extracted using RNAiso Plus (TaKaRa, Cat: 9108; Cat: RR036) according to manufacturer's protocol.
(§2) The extracted RNA was quantified using Nanodrop spectrometer (Thermo Fisher Scientific, Waltham, MA, US) and reverse transcribed to generate the template cDNA using the PrimeScript II 1st Strand cDNA synthesis kit according to manufacturer's protocol. Amplification of the gene encoding the hyaluronan synthase 3 (HAS3) and CD44 was performed with RT-PCR reagent (SYBR® Premix Ex Taq™) on the ABI Vii 7 Real-Time PCR Systems (Applied Biosystems, Thermo fisher scientific, Carlsbad, CA, USA). The beta-actin gene was selected as the housekeeping gene and all data on relative expression of the target genes was normalized to beta-actin. The fold changes in expression were calculated relative to the blank control (medium having no active).

[2] = system: CD44; test: CD44 gene expression by RT-PCR in normal human epidermal keratinocytes incubated with actives; type: cell-based; conditions: NHEK, 24 hours, 0.05 wt % of LCC in medium
Description: as §1, §2

## Lysine carboxymethyl cysteinate [LCC]
[1]
  HAS3 expression (fold change relative to blank control, normalized to beta-actin): 0.84
[2]
  CD44 expression (fold change relative to blank control, normalized to beta-actin): 1.06
